These results are taken from patent US20060025566A1, “Macrocyclic modulators of the ghrelin receptor” (Tranzyme Pharma Inc., priority 2003, published 2006).

The test deals with T1, human growth hormone secretagogue receptor (hGHS-R1a) (Homo sapiens, UniProt Q92847).
T1 construct: purchased PerkinElmer BioSignal #RBHGHSM, lot#1887; host or cells: HEK-293, stably transfected (membranes)
Put plainly: Competitive radioligand binding assay (ghrelin receptor), [125I]-ghrelin displacement on GHS-R/HEK 293 membranes. As for the experimental part: The competitive binding assay at the human growth hormone secretagogue receptor (hGHS-R1a) was carried out analogously to assays described in the literature.
Multiscreen Harvest plates-GF/C (Millipore, #MAHFC 1H60) • 4. […] Bottom seal (Millipore, #MATAH0P00) • 7. […] Binding Buffer: 25 mM Hepes (pH 7.4), 1 mM CaCl2, 5 mM MgCl2, 2.5 mM EDTA, 0.4% BSA Assay Volumes
Competition experiments were performed in a 300 μl filtration assay format. • 1. 220 μL of membranes diluted in binding buffer • 2. 40 μL of compound diluted in binding buffer • 3. […] Compound Handling
Compounds were provided frozen on dry ice at a stock concentration of 10 mM diluted in 100% DMSO and stored at −80° C. until the day of testing. On the test day, compounds were allowed to thaw at rt O/N and then diluted in assay buffer according to the desired test concentrations.
Plates were sealed with TopSeal-A, vortexed gently and incubated at rt for 30 min. The reaction was arrested by filtering samples through Multiscreen Harvest plates (pre-soaked in 0.5% polyethyleneimine) using a Tomtec Harvester, washed 9 times with 500 μL of cold 50 mM Tris-HCl (pH 7.4, 4° C.), and then plates were air-dried in a fumehood for 30 min. A bottom seal was applied to the plates prior to the addition of 25 μL of MicroScint-0 to each well. […] Results were expressed as counts per minute (cpm).
Data were analyzed by GraphPad Prism (GraphPad Software, San Diego, Calif.) using a variable slope non-linear regression analysis.
• 1. […] Key Aspects of Method • 1. […] Results

Setting [1] is: binding activity at the human ghrelin receptor, [125I]-ghrelin competition, GHS-R/HEK 293 membranes, read-out: Ki.
The mark [2] stands for this setting: Table 3E, human ghrelin receptor, read-out: Ki.
Setting [3] is: binding activity at the human ghrelin receptor, [125I]-ghrelin displacement, read-out: Ki.
Where [4] appears, read: [125I]-ghrelin competition, GHS-R/HEK 293 membranes, Table 3A, read-out: Binding Activity at the Human Ghrelin Receptor.
The mark [5] stands for this setting: second table titled 3C (compounds 435-449), human ghrelin receptor, read-out: Ki.

Read-outs that look alike come from different tables or passages of the source.

T1 sequence (Q92847 whole entry): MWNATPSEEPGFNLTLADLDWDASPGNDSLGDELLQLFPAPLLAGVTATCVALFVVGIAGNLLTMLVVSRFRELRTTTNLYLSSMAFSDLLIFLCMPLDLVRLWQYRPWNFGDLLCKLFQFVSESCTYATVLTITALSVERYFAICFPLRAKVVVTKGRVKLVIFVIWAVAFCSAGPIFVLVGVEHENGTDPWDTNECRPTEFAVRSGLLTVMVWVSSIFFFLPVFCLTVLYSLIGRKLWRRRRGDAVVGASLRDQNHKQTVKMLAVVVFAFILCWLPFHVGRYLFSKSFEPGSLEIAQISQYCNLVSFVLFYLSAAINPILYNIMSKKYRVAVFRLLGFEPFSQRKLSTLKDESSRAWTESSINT

In the case of `CCC[C@@H]1NCCOc2ccccc2CCCNC(=O)[C@@H](C)NC(=O)CN(C)C1=O` [compound 49], the Ki under setting [1] was over 10000 nM.
In the case of `C[C@@H]1C(=O)N[C@H](Cc2ccccc2)C(=O)NCCCc2ccccc2OCCN2CCCC[C@H]2C(=O)N1C` [drawing 1187], the Ki under setting [2] was in the range of 10 to 100 nM.
`CC(C)C[C@@H]1NCCOc2ccccc2CCCNC(=O)[C@H](Cc2ccc(O)cc2)NC(=O)C2(CCCC2)NC1=O` [compound 88]: the Ki under setting [1] fell in the range of 1000 to 10000 nM.
With `CCC[C@@H]1NCCOc2ccccc2CCCNC(=O)[C@@H](Cc2ccccc2)NC(=O)[C@H](CC(C)C)NC1=O` [compound 62], the Ki under setting [1] fell in the range of 1000 to 10000 nM.
For the compound `C[C@@H]1C(=O)N[C@H](Cc2ccc(I)cc2)C(=O)NCCCc2ccccc2OCCN[C@@H](C2CC2)C(=O)N1C` [compound 320], under setting [3], the Ki was 0.1 to 10 nM.
As to `CCC(C)C1NCCOc2ccccc2CCCNC(=O)C(Cc2ccccn2)NC(=O)C(C)N(C)C1=O` (stereo not shown) [compound 32], the Ki under setting [1] is 10 to 100 nM.
For the compound `CC(C)[C@@H]1NCCOc2ccccc2CCCNC(=O)[C@H](Cc2ccccc2)NC(=O)C2(CC2)NC1=O` [compound 216], the Ki under setting [4] is 1000 to 10000 nM.
As for `CCC[C@@H]1NCCOc2ccccc2CCCNC(=O)CNC(=O)CN(C)C1=O` [compound 51], the Ki under setting [1] was over 10000 nM.
Turning to `CC1(C)NCCOc2ccccc2C=CCNC(=O)[C@H](Cc2cccc(Cl)c2)NC(=O)C(C)(C)NC1=O` (stereo in doubt) [compound 350], the Ki (Table 3C (compounds 18, 334-397), human ghrelin receptor, read-out: Ki) was 100 to 1000 nM.
Consider `CC[C@H](C)[C@@H]1NCCOc2ccccc2CCCNC(=O)C(Cc2cccc(Cl)c2)NC(=O)C2(CCCC2)NC1=O` (stereo in doubt) [compound 369], for which the Ki under setting [3] fell in the range of 10 to 100 nM.
On to `CCC[C@@H]1NCCOc2ccccc2CCCNC(=O)[C@@H](Cc2ccccc2)NC(=O)C2(CCCC2)NC1=O` [compound 67], for which the Ki under setting [1] is 100 to 1000 nM.
As to `CC(C)CC1NCCOc2ccccc2CCCNC(=O)C(Cc2ccccc2)NC(=O)C2(CCCC2)NC1=O` (stereo not shown) [compound 96], the Ki under setting [1] was over 10000 nM.
As to `CC(C)C[C@@H]1NCCOc2ccccc2CCCNC(=O)[C@H](Cc2ccccc2)NC(=O)C(C)(C)NC1=O` [compound 95], the Ki under setting [1] lay within 1000 to 10000 nM.
Turning to `CC1C(=O)NC(Cc2ccc(Cl)c(Cl)c2)C(=O)NCCCc2ccccc2OCCNC(C2CC2)C(=O)N1C` (stereo not shown) [compound 315], the Ki under setting [3] was in the range of 0.1 to 10 nM.
Consider `CCC(C)C1NCCOc2ncccc2CCCNC(=O)C(Cc2cccc(Cl)c2)NC(=O)C2(CCCC2)NC1=O` (stereo not shown) [compound 449], for which, under setting [5], the Ki is 1000 to 10000 nM.
Regarding `COc1ccccc1C[C@@H]1NCCOc2ccccc2/C=C/CNC(=O)[C@H](Cc2cccc(Cl)c2)NC(=O)C2(CCCC2)NC1=O` [compound 343], under setting [3], the Ki is 100 to 1000 nM.
For `CC(C)C[C@@H]1NCCOc2ccccc2C=CCNC(=O)[C@H](C(C)C)NC(=O)C2(CCCC2)NC1=O` (stereo in doubt) [compound 46], under setting [1], the Ki was over 10000 nM.
In the case of `CC(C)[C@@H]1NCCOc2ccccc2C=CCNC(=O)[C@H](Cc2ccccc2)NC(=O)C2(CCCCC2)NC1=O` (stereo in doubt) [compound 139], the Ki under setting [1] lay within 100 to 1000 nM.
On to `CC(C)C[C@@H]1NCCOc2ccccc2CCCNC(=O)[C@H](Cc2c[nH]c3ccccc23)NC(=O)C2(CCCC2)NC1=O` [compound 89], for which the Ki under setting [1] was in the range of 1000 to 10000 nM.
As for `O=C1CNCCOc2ccccc2CCCNC(=O)C(Cc2ccccc2)NC(=O)C2(CCCC2)N1` (stereo not shown) [compound 112], the Ki under setting [1] is 1000 to 10000 nM.
Turning to `CCC(C)C1NCCOc2ccccc2/C=C/CNC(=O)C(COC)NC(=O)C2(CCCC2)NC1=O` (single isomer, unassigned) [443a], the Ki under setting [5] was over 10000 nM.
For `CC(C)CC1NCCOc2ccccc2C=CCNC(=O)C(Cc2ccccn2)NC(=O)C2(CCCC2)NC1=O` (stereo in doubt) [160a], the Ki under setting [4] is over 1000 nM.
The same measure, in the same setting: next, `CCC1NC(=O)C(C)N(C)C(=O)C(C(C)CC)NCCOc2ccccc2CCCNC1=O` (stereo not shown) [compound 172]: over 10000 nM.
With `C[C@@H]1NCCOc2ccccc2CCCNC(=O)[C@H](Cc2ccccc2)NC(=O)C2(CCCC2)NC1=O` [compound 100], the Ki under setting [1] was in the range of 100 to 1000 nM.
For `CCC(C)C1NCCc2ccccc2CCCCNC(=O)C(Cc2ccccc2)NC(=O)C(C)N(C)C1=O` (single isomer, unassigned) [189a], under setting [4], the Ki was 100 to 1000 nM.
With `CCC[C@@H]1NCCOc2ccccc2CCCNC(=O)[C@@H](CCCN)NC(=O)CN(C)C1=O` [compound 53], under setting [1], the Ki was over 10000 nM.
Same read-out and setting: next, `CCCC[C@H]1NC(=O)CN(C)C(=O)[C@H](CCC)NCCOc2ccccc2CCCNC1=O` [compound 52]: 100 to 1000 nM.
For `CC(C)C[C@@H]1NCCOc2ccccc2C=CCNC(=O)[C@H](Cc2ccc3ccccc3c2)NC(=O)C2(CCCC2)NC1=O` (stereo in doubt) [compound 159], under setting [4], the Ki is 10 to 100 nM.
Regarding `CC(C)CC1NCCOc2ccccc2CCCNC(=O)C(Cc2ccccc2)NC(=O)C(C)NC1=O` (stereo not shown) [compound 93], the Ki under setting [1] was 1000 to 10000 nM.
The same measure, in the same setting: next, `CC(C)C[C@@H]1NCCOc2ccccc2C=CCNC(=O)[C@H](CCc2ccccc2)NC(=O)C2(CCCC2)NC1=O` (stereo in doubt) [compound 155]: over 500 nM.
With `CC[C@H](C)[C@@H]1NCCOc2ccccc2CCCNC(=O)[C@@H]([C@@H](C)CC)NC(=O)[C@@H](C)N(C)C1=O` [compound 209], the Ki under setting [4] is 100 to 1000 nM.
Take `CC(C)[C@@H]1NCCOc2ccccc2C=CCNC(=O)[C@H](Cc2ccccc2)NC(=O)C2(CC2)NC1=O` (stereo in doubt) [compound 199]: under setting [4], the Ki lay in the range of 100 to 1000 nM.
Take `O=C1NC2(CCCC2)C(=O)N[C@@H](Cc2ccccc2)C(=O)NCCCc2ccccc2OCCN[C@H]1Cc1ccccc1` [compound 102]: the Ki under setting [1] lay in the range of 100 to 1000 nM.
Consider `C[C@@H]1C(=O)N[C@H](Cc2ccc(F)cc2)C(=O)NCCCc2ccccc2OCCN[C@@H](CN)C(=O)N1C` [compound 337], for which the Ki under setting [3] was 100 to 1000 nM.
As to `CCCC[C@@H]1NCCOc2ccccc2CCCNC(=O)[C@H](Cc2ccccc2)NC(=O)C2(CCCC2)NC1=O` [compound 101], the Ki under setting [1] was in the range of 100 to 1000 nM.
`CCC[C@@H]1NCCOc2ccccc2CCCNC(=O)[C@@H](Cc2ccccc2)NC(=O)[C@H](Cc2ccccc2)NC1=O` [compound 64]: the Ki under setting [1] is over 10000 nM.
Regarding `CCC[C@@H]1NCCOc2ccccc2CCCNC(=O)[C@@H](Cc2ccccc2)NC(=O)[C@@H]2CCCN2C1=O`, the Ki under setting [2] lay in the range of 1000 to 10000 nM.
As for `CN1CC(=O)N[C@H](Cc2ccccc2)C(=O)NCCCc2ccccc2OCCN[C@@H](CCC(=O)O)C1=O` [compound 73], the Ki under setting [1] was over 10000 nM.
Consider `CC(C)C[C@@H]1NCCOc2ccccc2C=CCNC(=O)[C@H](Cc2ccc(-c3ccccc3)cc2)NC(=O)C2(CCCC2)NC1=O` (stereo in doubt) [compound 157], for which the Ki under setting [4] lay within 100 to 1000 nM.
Take `CCCC1NCCC=CCCNC(=O)C(Cc2ccccc2)NC(=O)CN(C)C1=O` (stereo not shown) [compound 83]: the Ki under setting [1] was over 10000 nM.
`O=C1NC2(CCCC2)C(=O)NC(Cc2ccccc2)C(=O)NCC=Cc2ccccc2OCCNC1Cc1cccs1` (stereo in doubt) [compound 135]: the Ki under setting [1] was in the range of 100 to 1000 nM.
Same read-out and setting: with `CN1CC(=O)NC(Cc2ccccc2)C(=O)NCCCc2ccccc2OCCNCC1=O` (stereo not shown) [compound 80] the figure was over 10000 nM.
Turning to `O=C1NC2(CCCC2)C(=O)N[C@@H](Cc2ccccc2)C(=O)NCC=Cc2ccccc2OCCN[C@H]1Cc1ccccc1Cl` (stereo in doubt) [compound 122], under setting [1], the Ki lay in the range of 100 to 1000 nM.
Take `CCC(C)[C@@H]1NCCOc2ccccc2CCCNC(=O)[C@@H](Cc2ccccc2)N2CC[C@H](C2=O)N(C)C1=O` (stereo partly shown): the Ki under setting [2] lay within 10 to 100 nM.
For the compound `CCC[C@@H]1NCCOc2ccccc2CCCNC(=O)[C@@H](Cc2ccccc2)NC(=O)[C@@H](CC(C)C)NC1=O` [compound 63], the Ki under setting [1] is over 10000 nM.
With `CCC(C)C1NCCOc2ccccc2CCCNC(=O)C(Cc2ccccc2)NC(=O)C(COC(C)(C)C)NC1=O` (stereo not shown) [compound 215], the Ki under setting [4] was 1000 to 10000 nM.
For `CCC(C)[C@@H]1NCCOc2ccccc2CCCNC(=O)[C@@H](Cc2ccccc2)N2CC[C@@H](NC1=O)C2=O` (stereo partly shown), the Ki under setting [2] lay in the range of 100 to 1000 nM.
On to `CN1CC(=O)N[C@H](Cc2ccccc2)C(=O)NCCCc2ccccc2OCCN[C@@H](CCCCN)C1=O` [compound 74], for which the Ki under setting [1] was 1000 to 10000 nM.
The same measure, in the same setting: next, `CC[C@H](C)[C@@H]1NCCOc2ccccc2C=CCNC(=O)[C@H](Cc2ccccc2)NC(=O)[C@@H](C)NC1=O` (stereo in doubt) [compound 14]: 100 to 1000 nM; `O=C1NC2(CCCC2)C(=O)N[C@@H](Cc2ccccc2)C(=O)NCC=Cc2ccccc2OCCN[C@H]1Cc1ccc(Cl)cc1` (stereo in doubt) [compound 124]: 1000 to 10000 nM.
Take `C[C@@H]1C(=O)N[C@H](Cc2ccc(F)cc2)C(=O)NCCCc2ccccc2OCCN[C@@H](CCCN)C(=O)N1C` [compound 339]: the Ki under setting [3] lay within 100 to 1000 nM.
With `CC(C)C[C@@H]1NCCOc2ccccc2C=CCNC(=O)[C@H](Cc2cccs2)NC(=O)C2(CCCC2)NC1=O` (stereo in doubt) [compound 164], under setting [4], the Ki was in the range of 100 to 1000 nM.
